Reference: patent US20230136562A1, “SPIROUREA DERIVATIVES” (Idorsia Pharmaceuticals Ltd, priority 2020, published 2023)
Like-named read-outs stand apart in the source and are kept apart here.

System: primary neuronal cultures from embryonic rat brains
Test: Rat oscillation assay (FLIPR, neuronal calcium oscillations)
Type: cell-based
Protocol: A) Rat Oscillation Assay:
This assay is a functional phenotypic assay designed to mimic epileptic seizures using primary neuronal cultures from embryonic rat brains, which form a functional neuronal network that generate synchronized intracellular calcium concentration oscillations when cultured at high density in 384-well plate. The epileptic phenotype is induced by incubating the neurons in magnesium-free assay buffer, that results in increased probability of NMDA receptor activation, leading to an increased frequency and amplitude of intracellular calcium oscillations. Once neurons are incubated with the calcium indicator dye Fluo-8 AM (Tebu-bio), neuronal calcium oscillations can be monitored in real time using FLIPR® Tetra (fluorometric plate reader, Molecular Devices). With these recordings, the effect of anti-epileptic drugs can be quantified. The anti-epileptic effect of compounds, which activate directly or indirectly the Kv7 channels can be modulated by the Kv7 channel blocker XE-991. The assay was performed as described previously (Pacico N, Mingorance-Le Meur A. New In Vitro Phenotypic Assay for Epilepsy: Fluorescent Measurement of Synchronized Neuronal Calcium Oscillations. PLoS ONE 9(1) 2014) with modifications described hereafter.
Animal care followed standard procedures in accordance with swiss institutional guidelines. Dissociated neuronal cultures were obtained from cerebral cortices of embryonic Wistar rats at embryonic stage E18 (Charles River). The uterine horns were removed by caesarian surgery from deeply anesthetized rats (Isofurane) and sacrificed by decapitation. The embryos were decapitated by closing forceps. The brains were isolated and dissected one by one in ice-cold PBS (Life Technologies) under optical control using a binocular. Meninges, olfactory bulbs, and basal ganglia were removed. Cortical hemispheres (still including the hippocampus) were cut in small pieces with tweezers and placed on ice in pre-chilled Hibernate-E medium (Life technology). The hemispheres were then incubated in 10 mL of Hibernate-E containing 15 U/mL papain (Worthington) for 25 min at 30° C. with gentle mixing every 10 min. Genomic DNA was then digested by prolonging the incubation during 10 min at 37° C. in presence of 4 U/mL rDNase I (Ambion). The obtained suspension was then centrifuged at 800 g for 5 min and the cell pellet was resuspended in 2 mL Hibernate-E and gently dissociated by pipetting up and down 10 times with a plastic Pasteur pipette resulting in a homogenous cell suspension. This suspension was immediately filtered through a 70 µm cell strainer (MACS® SmartStrainer, Miltenyi), collected in 10 mL Hibernate-E and centrifuged at 800 g for 5 min. The cell pellet was resuspended in Neurobasal medium, supplemented with 2% B-27, 0.5 mM Glutamax-I, 100 U/mL penicillin, 100 µg/mL streptomycin (Life Technologies) and diluted at the final concentration of 300′000 cells/mL. One day before plating the cells, 384-well plates were coated with 25 μL/well of 0.1% poly-L-lysine solution (Sigma), incubated overnight at 37° C., washed two times with sterile distilled water and allowed to dry at room temperature for >2 h. The neurons were seeded at a density of 15′000 cells/well in 50 μL/well in a 384-well black, clear-bottomed plates (Corning) and subsequently maintained in an incubator at 37° C., 5% CO2 and 95% humidity for 8 to 10 days. After 3 and 7 days, 40% of media was renewed under sterile conditions.
Protocol Rat Oscillation Assay
Neurons seeded in the assay plates were washed with Hank's balanced salt solution (HBSS) devoid of Ca^2+ and Mg^2+, supplemented with 20 mM HEPES (Life Technologies) and 2 mM CaCl2 (Sigma), pH 7.4 (hereafter called Assay buffer) using a Biotek EL406 plate washer. Neurons were loaded with 1 μM Fluo-8 AM in Assay buffer for 15 min at 37° C., 5% CO2. […]

[1] = AUC of fluorescence measured 20 min after compound addition, read-out: FLIPR: IC50 [nM] 20 min
[2] = Acute phase, ratio of AUC fluorescence before and after compound addition, read-out: FLIPR: IC50 [nM] acute
[3] = Rattus norvegicus, 20 min, AUC of fluorescence measured 20 min after compound addition, read-out: FLIPR: IC50 [nM] 20 min
[4] = Rattus norvegicus, Acute phase, ratio of AUC fluorescence before and after compound addition, read-out: FLIPR: IC50 [nM] acute

Row | SMILES | IC50 [1] [nM] | IC50 [2] [nM] | IC50 [3] [nM] | IC50 [4] [nM]
1 | COCC(Oc1cc(CNC(=O)NC2CC3(CCC3)C2)ccn1)C(F)(F)F (single isomer, unassigned) [Example 171, 1-Spiro[3.3]hept-2-yl-3-[2-(2,2,2-trifluoro-1-methoxymethyl-ethoxy)-pyridin-4-ylmethyl]-urea] | 377 | 252 | – | –
2 | O=C(NCc1cccc(C(F)(F)F)c1Cl)NC1CC2(CC2)C1 [Example 150, 1-(2-Chloro-3-trifluoromethyl-benzyl)-3-spiro[2.3]hex-5-yl-urea] | – | – | 1160 | 1080
3 | Cc1cc(OCC(F)(F)F)cc(C(C)NC(=O)NC2CC3(CCC3)C2)c1 (racemic) [Example 32, (±)-1-{1-[3-Methyl-5-(2,2,2-trifluoro-ethoxy)-phenyl]-ethyl}-3-spiro[3.3]hept-2-yl-urea] | – | – | 14 | 24
4 | O=C(NC1CC2(CC2)C1)NC(c1cccc(C(F)(F)F)c1)C(F)F (racemic) [Example 146, (±)-1-[2,2-Difluoro-1-(3-trifluoromethyl-phenyl)-ethyl]-3-spiro[2.3]hex-5-yl-urea] | – | – | 6.6 | 4.2
5 | O=C(NC1CC2(CCC2)C1)N[C@H](c1cccc(C(F)(F)F)c1)C(F)(F)F (single isomer, unassigned) [Example 178] | – | – | 11 | 16
6 | CC(Oc1cccc(C2(NC(=O)NC3CC4(CCC4)C3)CC2)c1)C(F)(F)F (single isomer, unassigned) [Example 170, 1-Spiro[3.3]hept-2-yl-3-{1-[3-(2,2,2-trifluoro-1-methyl-ethoxy)-phenyl]-cyclopropyl}-urea] | 59 | 76 | – | –
7 | COCC(NC(=O)NC1CC2(CC2)C1)c1ccnc(OCC(F)(F)F)c1 (racemic) [Example 154, (±)-1-{2-Methoxy-1-[2-(2,2,2-trifluoro-ethoxy)-pyridin-4-yl]-ethyl}-3-spiro[2.3]hex-5-yl-urea] | – | – | 24 | 8.1
8 | C[C@@H](NC(=O)NC1CC2(CCC2)C1)c1cccc(OC(F)F)c1 (single isomer, unassigned) [Example 174] | – | – | 2490 | 2870
9 | COc1ccc(C(C)NC(=O)NC2CC3(CCC3)C2)cc1OCC(F)(F)F (racemic) [Example 28, (±)-1-{1-[4-Methoxy-3-(2,2,2-trifluoro-ethoxy)-phenyl]-ethyl}-3-spiro[3.3]hept-2-yl-urea] | – | – | 600 | 629
10 | CC(Oc1cccc(C2(NC(=O)NC3CC4(CCC4)C3)CC2)c1)C(F)(F)F (racemic) [Example 111, (±)-1-Spiro[3.3]hept-2-yl-3-{1-[3-(2,2,2-trifluoro-1-methyl-ethoxy)-phenyl]-cyclopropyl}-urea] | – | – | 34 | 26
11 | CC(NC(=O)NC1CC2(CCC2)C1)c1cccc(S(F)(F)(F)(F)F)c1 (racemic) [Example 34, (±)-1-(1-(3-(pentafluoro-λ^6-sulfaneyl)phenyl)ethyl)-3-(spiro[3.3]heptan-2-yl)urea] | – | – | 8.5 | 6.7
12 | N#CC(NC(=O)NC1CC2(CCC2)C1)c1cccc(C(F)(F)F)c1 (racemic) [Example 89, 1-[(±)-Cyano-(3-trifluoromethyl-phenyl)-methyl]-3-spiro[3.3]hept-2-yl-urea] | – | – | 74 | 75
13 | O=C(NCc1ccnc(OC(F)(F)F)c1)NC1CC2(CC2)C1 [Example 153, 1-Spiro[2.3]hex-5-yl-3-(2-trifluoromethoxy-pyridin-4-ylmethyl)-urea] | – | – | 601 | 336
14 | COc1c(C(C)NC(=O)NC2CC3(CC3)C2)cccc1C(F)(F)F (racemic) [Example 133, (±)-1-[1-(2-Methoxy-3-trifluoromethyl-phenyl)-ethyl]-3-spiro[2.3]hex-5-yl-urea] | – | – | 670 | 396
15 | Cc1ccc(CNC(=O)NC2CC3(CCC3)C2)nc1OCC(F)(F)F [Example 108, 1-[5-Methyl-6-(2,2,2-trifluoro-ethoxy)-pyridin-2-ylmethyl]-3-spiro[3.3]hept-2-yl-urea] | – | – | 279 | 205
16 | O=C(NC1CC2(CCC2)C1)N1CCc2c(ccnc2OCC(F)(F)F)C1 [Example 53, 5-(2,2,2-Trifluoro-ethoxy)-3,4-dihydro-1H-[2,6]naphthyridine-2-carboxylic acid spiro[3.3]hept-2-ylamide] | – | – | 226 | 185
17 | CC(NC(=O)NC1CC2(CCC2)C1)c1cccc(OCC(F)(F)F)c1F (racemic) [Example 98, (±)-1-{1-[2-Fluoro-3-(2,2,2-trifluoro-ethoxy)-phenyl]-ethyl}-3-spiro[3.3]hept-2-yl-urea] | – | – | 14 | 11
18 | CC(Oc1nccc(CNC(=O)NC2CC3(CCC3)C2)n1)C(F)(F)F (single isomer, unassigned) [Example 180, 1-Spiro[3.3]hept-2-yl-3-[2-(-2,2,2-trifluoro-1-methyl-ethoxy)-pyrimidin-4-ylmethyl]-urea] | 78 | 62 | – | –
19 | CC(NC(=O)NC1CC2(CCC2)C1)c1ccc(Cl)c(OCC(F)(F)F)c1 (racemic) [Example 27, (±)-1-{1-[4-Chloro-3-(2,2,2-trifluoro-ethoxy)-phenyl]-ethyl}-3-spiro[3.3]hept-2-yl-urea] | – | – | 169 | 278
20 | CC(NC(=O)NC1CC2(CCC2)C1)c1cccc(OC(F)(F)F)c1 (centres unmarked) [Example 119, 1-Spiro[3.3]hept-2-yl-3-[1-(3-trifluoromethoxy-phenyl)-ethyl]-urea] | – | – | 12 | 10
21 | N#CCC(NC(=O)NC1CC2(CCC2)C1)c1cccc(OC(F)(F)F)c1 (racemic) [Example 66, (±)-1-[2-Cyano-1-(3-trifluoromethoxy-phenyl)-ethyl]-3-spiro[3.3]hept-2-yl-urea] | – | – | 17 | 8.2
22 | CC(NC(=O)NC1CC2(C1)CC(F)(F)C2)c1cccc(C(F)(F)F)c1 (racemic) [Example 161, (±)-1-(6,6-Difluoro-spiro[3.3]hept-2-yl)-3-[1-(3-trifluoromethyl-phenyl)-ethyl]-urea] | – | – | 97 | 78
23 | CC(NC(=O)NC1CC2(CCC2)C1)c1cccc2c1OC(F)(F)O2 (racemic) [Example 47, (±)-1-[1-(2,2-Difluoro-benzo[1,3]dioxol-4-yl)-ethyl]-3-spiro[3.3]hept-2-yl-urea] | – | – | 222 | 103
24 | CC(NC(=O)NC1CC2(CCC2)C1)c1cccc(S(C)(=O)=O)c1 (racemic) [Example 36, (±)-1-[1-(3-Methanesulfonyl-phenyl)-ethyl]-3-spiro[3.3]hept-2-yl-urea] | – | – | 330 | 236
25 | O=C(NCc1cc(C(F)(F)F)ccc1O)NC1CC2(CCC2)C1 [Example 38, 1-(2-Hydroxy-5-trifluoromethyl-benzyl)-3-spiro[3.3]hept-2-yl-urea] | – | – | 330 | 627
26 | C[C@@H](NC(=O)NC1CC2(CCC2)C1)c1cc(OCC(F)(F)F)ncn1 (single isomer, unassigned) [Example 183] | – | – | 1990 | 1420
27 | C=CCC(NC(=O)NC1CC2(CCC2)C1)c1cccc(C(F)(F)F)c1 (racemic) [Example 80, (±)-1-Spiro[3.3]hept-2-yl-3-[1-(3-trifluoromethyl-phenyl)-but-3-enyl]-urea] | – | – | 14 | 13
28 | O=C(NC1CC2(CCC2)C1)NC(c1cccc(C(F)(F)F)c1)C1CC1 (racemic) [Example 24, (±)-1-[Cyclopropyl-(3-trifluoromethyl-phenyl)-methyl]-3-spiro[3.3]hept-2-yl-urea] | – | – | 8.6 | 14
